Here are results for one molecule from PMC10330721, “Chemo-enzymatic synthesis and biological activity evaluation of propenylbenzene derivatives” (Frontiers in Microbiology, 2023).

≈ marks a conversion by molar mass, not a printed value.

The test system of data set [1] is HepG2 cells. In words: Resazurin-based viability assay. The following applies: 24 h, 1, 50 and 200 μg/mL. Type of data set: cell-based, human. In a few lines:
(§1)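 HepG2 and Caco-2 cells, 20,000 per well, exposed 24 h to compounds at 1, 50 and 200 μg/mL (from ethanol stock) alongside ethanol-only controls. Viability read with 10% resazurin for 2 h at 37°C, absorbance 600 nm against 690 nm reference.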
In general terms: The colour change of resazurin is a common sign of viable cells or microbes.

Data set [2] deals with Caco-2 cells. Put plainly: Resazurin-based viability assay. The following applies: 24 h, 1, 50 and 200 μg/mL. Type of data set: cell-based, human. In a few lines:
as §1

Data set [3] relates to Dietzia sp. DSM44016. In words: Substrate toxicity in preparative biotransformation. In kind it is cell-based. Particulars: preparative scale, 0.2 g substrate in 500 mL PCM medium. The protocol: (§2) Five hundred millilitres of PCM medium was added into a 2,000-mL Erlenmeyer flask and sterilized at 121°C for 15 min. The medium was inoculated with 5 mL of pre-prepared bacterial cultures at OD600 = 0.3–0.5. The cultures were incubated at 22°C under shaking at 150 rpm for 3 days. Then, 0.2 g of diols 1b–5b dissolved in 5 mL of DMSO was added into the cultures. The samples were extracted after 3, 7, 11 days and evaluated by GC to estimate the progress of the biotransformation.

A short description of data set [4]: Haemolytic activity assay. In kind it is cell-based. The following applies: human red blood cells (RBCs) from healthy donors, 37°C, read-out: Percentage of haemolysis.
The test system of data set [5] is R. erythropolis DSM44534 and R. erythropolis PCM2150. Put plainly: Substrate inhibition in preparative biotransformation. Type of data set: cell-based, Rhodococcus erythropolis. The following applies: preparative scale, high concentration of substrate (0.2 g in 500 mL PCM medium). On the procedure:
as §2

For data set [6], the system named is C. albicans ATTC 90028. Put plainly: Fungistatic activity assay, broth microdilution. Type of data set: cell-based. Particulars: Candida albicans; C. albicans ATTC90028, 24 h, 35°C, tested 10–250 μg/mL; read-out: MIC50. For orientation: In broth dilution the organism is exposed to a series of concentrations in liquid medium.
For data set [7], the system named is C. albicans 636/20. Put plainly: Fungistatic activity assay, broth microdilution. The following applies: Candida albicans; C. albicans 636/20, 24 h, 35°C, tested 10–250 μg/mL; read-out: MIC50. In kind it is cell-based.
Data set [8] concerns RBCs membrane. Put plainly: Fluorescence spectroscopy of the RBCs membrane (DPH probe anisotropy). In kind it is cell-based, human. The following applies: for Fluorescence anisotropy of the DPH probe: membranes of RBCs, 37 °C. In general terms: In fluorescence polarisation assays a small probe gives low polarisation when free and higher when bound to something large.

A word on the MIC50: it is the lowest concentration that inhibits either 50% of growth or 50% of the strains tested, depending on the study. On to `CC(O)C(O)c1ccccc1` (stereo not shown) [2b, 1-phenylpropane-1,2-diol], for which the “Effect on HepG2 proliferation / viability (in words)” value in data set [1] was “highest inhibitory effect”. Besides, the “Effect on Caco-2 proliferation / viability (in words)” value in data set [2] is “strongest inhibition”. For the same molecule, the “Toxicity of substrate to the strain (in words)” value in data set [3] is “toxic”. Besides, the hemolysis at 1 h, 10 µM in data set [4] (10 µM) came to 1.04 ± 0.275%. Moreover, in data set [4] (20 µM), the hemolysis at 1 h, 20 µM is 1.08 ± 0.107%. Besides, the hemolysis at 1 h, 40 µM in data set [4] (40 µM) amounted to 1 ± 0.295%. For the same molecule, the hemolysis at 1 h, 60 µM in data set [4] (60 µM) was found to be 1.32 ± 0.255%. Also, the hemolysis at 1 h, 80 µM in data set [4] (80 µM) was found to be 1.79 ± 0.382%. Further, the hemolysis at 1 h, 100 µM in data set [4] (100 µM) came to 1.71 ± 0.054%. In addition, the “Inhibitory effect of substrate on the strains (in words)” value in data set [5] is on record as “inhibitory effect”. The MIC50 in data set [6] came to 125 µg/mL (≈ 821 µM); in data set [7], 121 µg/mL (≈ 795 µM). In addition, the “Change in DPH anisotropy / RBCs membrane fluidity (in words)” value in data set [8] (RBCs, 20, 60 and 100 μM) is recorded as “increase in anisotropy”. The “Fluorescence anisotropy of the DPH probe” value in data set [8] (20 µM) came to 0.286 ± 0.015; in data set [8] (60 µM), 0.277 ± 0.028; in data set [8] (100 µM), 0.278 ± 0.011.
